# According to publication PMC9644403, “L-type Amino Acid Transporter 1 Utilizing Ferulic Acid Derivatives Show Increased Drug Delivery in the Mouse Pancreas Along with Decreased Lipid Peroxidation and Prostaglandin Production” (Molecular Pharmaceutics, 2022):
# Tested on: human umbilical vein endothelial cells (HUVECs)
# Assay: HUVEC viability, WST-1 assay
# Type: cell-based
# Details: WST-1, 24 h
# Experimental: As a third in vitro toxicity study in the human blood circulation system, the effects of FA, D1, and D2 on the viability of human umbilical vein endothelial cells (HUVECs; RRID CVCL_2959; Lonza, Italy; Cat. no. CC-2517) were determined using the WST-1 assay (Takara, Takara Bio Europe, Europe, Saint-Germain-en-Laye, France), according to the previously published protocol.[32] Briefly, the cells were cultured according to the manufacturer’s guidelines with the following ingredients: EGM-2-medium + bullet kit (Lonza, Clonetics, Italy), accutase (Sigma-Aldrich, Germany), and HEPES-buffered saline solution (Lonza, Basel, Switzerland). For the assay, the cells were seeded at the density of 7 500 HUVECs per well on 96-well plates and cultured for 24 h to obtain 70% confluency. Subsequently, the cells were treated with studied compounds in multiplicate (n = 6–8) at the concentration of 0.1–100 μM in the growth medium for 24 h (37 °C, 5% CO2). Cells with untreated growth medium represented 100% viability, whereas cells treated with medium containing 0.5% (v/v) methanol served as a negative control for drug solvent. After treating cells for 24 h, medium was removed, the cells were washed with the culture medium (100 μl/well), and 100 μL of WST-1 reagent dissolved in culture medium was added into each well. The plates were incubated at 37 °C with 5% CO2 for 2 h, after which absorbance values were measured at the 450 nm wavelength using a microplate reader (iMARK, Bio-Rad). Additionally, the effects of treatments on HUVEC morphology were examined microscopically using a phase-contrast Opta-Tech inverted microscope equipped with OptaView 7 software (Opta-Tech, Warsaw, Poland) for image analysis.
smiles,measurement,value
"COc1cc(C=CC(=O)O)ccc1O [ferulic acid, 4-hydroxy-3-methoxycinnamic acid]",effect on HUVEC viability at 1–50 μM,no statistically significant effect
